Test results published in patent US20230140926A1, “IONIC LIQUID, SOLVENT, PREPARATION, AND TRANSDERMALLY ABSORBABLE AGENT” (Kyushu University, National University Corporation, priority 2020, published 2023).

Legend:
stratum corneum = experiment: Influence on stratum corneum of skin (FTIR); design: species or system pig; conditions: for Absorbance; CH2 asymmetric / Absorbance; CH2 symmetric / shift (cm^−1), CH2 asymmetric / shift (cm^−1), CH2 symmetric / shift (intensity), CH2 asymmetric / shift (intensity), CH2 symmetric: stratum corneum lipid; for Absorbance; CH2 asymmetric / Absorbance; CH2 symmetric / Absorbance; C═O amide-II / Absorbance; NH—C═O amide-I: FTIR, 30 minutes immersion; for shift (cm^−1), CH2 asymmetric / shift (cm^−1), CH2 symmetric / shift (intensity), CH2 asymmetric / shift (intensity), CH2 symmetric / shift (cm^−1), C═O amide-II / shift (cm^−1), NH—C═O amide-I / shift (intensity), C═O amide-II / shift (intensity), NH—C═O amide-I: versus untreated control; for Absorbance; C═O amide-II / Absorbance; NH—C═O amide-I / shift (cm^−1), C═O amide-II / shift (cm^−1), NH—C═O amide-I / shift (intensity), C═O amide-II / shift (intensity), NH—C═O amide-I: stratum corneum protein
Description: Frozen skin of a pig (YMPC, Hoshino Test Animal Breeding Co., Ltd.) was returned to room temperature, dried skin was warmed at 60° C. for from 60 to 120 seconds, and the epidermal layer was peeled from the skin. […] The isolated stratum corneum was washed with water and dried for an additional 24 hours. Sections of stratum corneum were immersed in test samples (IPM, Ionic Liquids 1, 2, 4, tween-80, DGME or PBS) in glass tubes for 30 minutes at room temperature. Stratum corneum sheets were washed with 20% ethanol and dried for 1 hour. The stratum corneum sheets were analyzed by Fourier transform infrared spectroscopy (FTIR) spectroscopy. Untreated stratum corneum was used as a control.

[1] = Evaluation of solubility of ionic liquids in a variety of solvents (visual); type: physicochemical; conditions: 50:50 by weight, room temperature
Description: The solubility of ionic liquids in a variety of solvents was evaluated at room temperature. Specifically, Ionic Liquids 1 to 3 were placed in a glass tube with respective solvents and mixed by stirring with a vortex mixer for from 1 to 2 minutes. The ratio of Ionic Liquids 1 to 3 to the corresponding solvents was 50:50 by weight. The solubility and transparency of the obtained liquids (liquid samples) were visually observed and evaluated according to the following criteria.
∘: Ionic liquid is dissolved uniformly and the clarity of the liquid sample is high
Δ: Ionic liquid is uniformly dissolved, but liquid sample is cloudy
×: Ionic liquid and solvent are separated, and the ionic liquid is not dissolved in the solvent. The same evaluation was performed for intermediate 2 ([EDMPC][Cl]) as a comparison.

Row | Compound | Absorbance; CH2 asymmetric (stratum corneum) | Absorbance; CH2 symmetric (stratum corneum) | shift (cm^−1), CH2 asymmetric (stratum corneum) | shift (cm^−1), CH2 symmetric (stratum corneum) | shift (intensity), CH2 asymmetric (stratum corneum) | shift (intensity), CH2 symmetric (stratum corneum) | Absorbance; C═O amide-II (stratum corneum) | Absorbance; NH—C═O amide-I (stratum corneum) | shift (cm^−1), C═O amide-II (stratum corneum) | shift (cm^−1), NH—C═O amide-I (stratum corneum) | shift (intensity), C═O amide-II (stratum corneum) | shift (intensity), NH—C═O amide-I (stratum corneum) | Solubility and transparency in Dimethyl sulfoxide ([1]; solvent Dimethyl sulfoxide) | Solubility and transparency in Ethanol ([1]; solvent Ethanol) | Solubility and transparency in Isopropyl alcohol ([1]; solvent Isopropyl alcohol) | Solubility and transparency in Isopropyl myristate ([1]; solvent Isopropyl myristate)
1 | CCOCCOCCO [DGME, diethylene glycol monoethyl ether] | 2918 cm⁻¹ | 2853 cm⁻¹ | 0 cm⁻¹ | 2 cm⁻¹ | 2.37 | 1.25 | 1648 cm⁻¹ | 1541 cm⁻¹ | 1 cm⁻¹ | 4 cm⁻¹ | 18.00 | 14.31 |  |  |  | 
2 | CCCCCCCCCCCCCC(=O)OC(C)C [IPM, isopropyl myristate] | 2920 cm⁻¹ | 2853 cm⁻¹ | 2 cm⁻¹ | 2 cm⁻¹ | 1.72 | 1.08 | 1648 cm⁻¹ | 1539 cm⁻¹ | 1 cm⁻¹ | 2 cm⁻¹ | 13.95 | 10.59 |  |  |  | 
3 | CCCCCCCCCCCCCC(=O)OC[C@H](COP(=O)(OCC)OCC[N+](C)(C)C)OC(=O)CCCCCCCCCCCCC (stereo partly shown) [Intermediate 2, EDMPC chloride] |  |  |  |  |  |  |  |  |  |  |  |  | ◯ | ◯ | ◯ | ◯
4 | tween-80 | 2920 cm⁻¹ | 2853 cm⁻¹ | 2 cm⁻¹ | 2 cm⁻¹ | 2.80 | 1.30 | 1648 cm⁻¹ | 1542 cm⁻¹ | 1 cm⁻¹ | 5 cm⁻¹ | 19.01 | 16.14 |  |  |  | 
